Test results: article PMC9762708 (Annals of Surgery, 2022)
Residues, ends and D or L forms follow the SMILES beside them.

Key:
Assay in all cases: MIC of phase IIb clinical isolates
Format in all cases: cell-based
[1] = tested on: Staphylococcus epidermidis; conditions: 126 strains
[2] = tested on: Staphylococcus haemolyticus; conditions: 23 strains
Pseudomonas aeruginosa = conditions: 74 strains
Klebsiella pneumoniae = conditions: 45 strains
Escherichia coli = conditions: 22 strains
Enterobacter cloacae = conditions: 63 strains
Acinetobacter baumannii = conditions: 31 strains
Enterococcus faecalis = conditions: 25 strains
Staphylococcus aureus = conditions: 320 strains

SMILES	Strains Resistant to Control Antibiotics [1]	Strains Resistant to Control Antibiotics [2]	Strains Resistant to Control Antibiotics (Pseudomonas aeruginosa)	Strains Resistant to Control Antibiotics (Klebsiella pneumoniae)	Strains Resistant to Control Antibiotics (Escherichia coli)	Strains Resistant to Control Antibiotics (Enterobacter cloacae)	Strains Resistant to Control Antibiotics (Acinetobacter baumannii)	Strains Resistant to Control Antibiotics (Enterococcus faecalis)	MIC50 [1]	MIC90 [1]	MIC50 [2]	MIC90 [2]	MIC90 (Pseudomonas aeruginosa)	MIC50 (Escherichia coli)	MIC90 (Escherichia coli)	MIC50 (Enterococcus faecalis)	MIC90 (Enterococcus faecalis)	Strains Resistant to Control Antibiotics (Staphylococcus aureus)
CO/N=C(\C(=O)N[C@@H]1C(=O)N2C(C(=O)O)=C(CSc3nc(=O)c(=O)[nH]n3C)CS[C@H]12)c1csc(N)n1 [Ceftriaxone, ceftriaxone]	No	No	74 (100) n (%)	18 (40.0) n (%)	13 (59.1) n (%)	8 n (%)	14 (45.2) n (%)	25 (100) n (%)										
CC[C@H](C)[C@H](NC(=O)[C@H](C)NC(=O)[C@H](CCCCN)NC(=O)[C@H](CC(C)C)NC(=O)[C@H](C)NC(=O)[C@@H](NC(=O)[C@H](Cc1c[nH]cn1)NC(=O)[C@H](CC(C)C)NC(=O)[C@@H](NC(=O)[C@@H](NC(=O)[C@H](CCCCN)NC(=O)[C@H](C)NC(=O)[C@H](C)NC(=O)[C@H](CO)NC(=O)[C@H](CCCCN)NC(=O)[C@H](Cc1ccccc1)NC(=O)[C@@H](NC(=O)[C@H](CCCCN)NC(=O)[C@H](CC(C)C)NC(=O)[C@H](Cc1ccccc1)NC(=O)[C@H](CO)NC(=O)[C@H](CCCCN)NC(=O)[C@H](Cc1c[nH]c2ccccc12)NC(=O)[C@H](CCCCN)NC(C)=O)[C@@H](C)O)[C@@H](C)O)C(C)C)[C@@H](C)O)C(=O)N[C@@H](CO)C(=O)N[C@@H](CO)C(N)=O [PL-5, Peceleganan] (Ac-KWKSFLKTFKSAAKTVLHTALKAISS-NH2; N-terminus and C-terminus assumed)									4 µg/mL	4 µg/mL	2 µg/mL	8 µg/mL	8 µg/mL	8 µg/mL	16 µg/mL	64 µg/mL	128 µg/mL	
CN[C@H](CC(C)C)C(=O)N[C@H]1C(=O)N[C@@H](CC(N)=O)C(=O)N[C@H]2C(=O)N[C@H]3C(=O)N[C@H](C(=O)N[C@H](C(=O)O)c4cc(O)cc(O)c4-c4cc3ccc4O)[C@H](O)c3ccc(c(Cl)c3)Oc3cc2cc(c3O[C@@H]2O[C@H](CO)[C@@H](O)[C@H](O)[C@H]2O[C@H]2C[C@](C)(N)[C@H](O)[C@H](C)O2)Oc2ccc(cc2Cl)[C@H]1O [Vancomycin, vancomycin]	0 n (%)	0 n (%)						0 n (%)										0 n (%)
C[C@@H](O)[C@H]1C(=O)N2C(C(=O)O)=C(SCCN=CN)C[C@H]12 [Imipenem, imipenem]			2 n (%)	1 n (%)	0 n (%)	8 n (%)	15 (48.4) n (%)											
C[C@H]1COc2c(N3CCN(C)CC3)c(F)cc3c(=O)c(C(=O)O)cn1c23 [Levofloxacin, levofloxacin]	41 (32.5) n (%)	14 (60.9) n (%)	8 n (%)	14 (31.1) n (%)	13 (59.1) n (%)	2 n (%)	5 n (%)	2 n (%)										56 (17.5) n (%)
